What all share (type): cell-based
The test system of one assay is LoVo colon cancer cells. Kind of assay: CellTiter-Glo luminescent cell viability assay, LoVo 96-well drug screening plate. The note with it: Homo sapiens, 72 hours. On the procedure: (§1) In example 1, CELLTITER-GLO was used to test desogestrel for colon cancer RKO cells, LoVo cells, and MDA-MB-468 ductal breast cancer cells were handled as described above, and RKO 96-well cell culture plates, 96-well LoVo cell culture plates, and 96-well MDA-MB-468 cell culture plates were obtained, respectively. The complete medium for LoVo cells was MEM (a live product), Cat #10370021, with a cells/well density of 8000. a) DMSO was used to dilute the analyte desogestrel to 20 mM for use. b) 79 μL of the 20 mM analyte prepared in step a) was added to the first well in the first row of the dilution plate, and then 54 μL of DMSO solution was added to the second through ninth wells of the first row. 25 μL of solution was aspirated from the first to the second well, and after mixing well 25 μL of solution was aspirated from the second to the third well, and this was repeated until the 9th well in order to ensure that 3.16 dilution of the medication would be carried out one-by-one. b) 95 μl of cell-specific complete medium was added to the working plate, each medication to 9 wells. […] The final concentrations (μM) of the analyte drug in wells 2-10 in FIG. 1 are, in order: 100, 31.64557, 10.01442, 3.16912, 1.002886, 0.317369, 0.100433, 0.031783, 0.010058; a) Before testing, the RKO 96-well drug screening plate and the LoVo 96-well drug screen plate described in 3 above were stabilized to room temperature for 20-30 minutes. c) 100 μl of CellTiter-Glo reagent (prepared as described in 1 above) was added to all drug screening plates and mixed evenly. d) It was thoroughly oscillated in a 96-well microplate oscillator for 2 minutes to allow the cells to undergo full lysis. e) It was stored away from light at room temperature for 15 minutes before carrying out luminescent signal detection to ensure signal stability. f) An EnSpire multi-function plate reader was used at 570 nm to read the luminescent signals.

Assay [1] has as its system ER-negative Ah receptor-positive MDA-MB-468 breast cancer cells. The assay can be described thus: CellTiter-Glo luminescent cell viability assay, MDA-MB-468 96-well drug screening plate. The settings on record: Homo sapiens, 72 hours. On the procedure: as §1, with “RKO” for “In example 1, CELLTITER-GLO was used to test desogestrel for colon cancer RKO”, “for ER-negative Ah receptor-positive MDA-MB-468 breast cancer” for “for LoVo”, “was Leibovitz's L-15” for “was MEM”, “Cat #11415064,” for “Cat #10370021,”, “of 12000.” for “of 8000.”, “0.010058;” for “0.010058; a) Before testing, the RKO 96-well drug screening plate and the LoVo 96-well drug screen plate described in 3 above were stabilized to room temperature for 20-30 minutes.”
On the technique in general: ATP-based viability assays read luminescence as a measure of living cells.

In assay [2] the test system is BT-474 ductal breast cancer cells. Kind of assay: CellTiter-Glo luminescent cell viability assay, BT-474 cells (same method). The settings on record: Homo sapiens, Table 1. The text has this:
Ductal breast cancer cells BT-474, complete medium basis of RPMI-1640 (a live product), Cat #A1049101, with a cells/well density of 4,000. The same method was used to test desogestrel's action on the IC50 value of BT-474 ductal breast cancer cells; results are shown in Table 1.

The next assay deals with RKO colon cancer cells. Kind of assay: CellTiter-Glo luminescent cell viability assay, RKO 96-well drug screening plate. The settings on record: 72 hours. The method, then: as §1, with “for RKO” for “for LoVo”, “was DMEM” for “was MEM”, “Cat #11995081,” for “Cat #10370021,”, “of 12000.” for “of 8000.”

The values below come from US11452730B2, “Applications of desogestrel in the preparation of breast cancer ER-negative Ah receptor-positive products” (SHANGHAI JIAO TONG UNIVERSITY, priority 2015, dated 2022).

Each structure is given as a SMILES string. Like-named read-outs stand apart in the source and are kept apart here.

Usually EC50 stands for the concentration giving half of the maximal effect. A low value points to higher potency in that assay. Usually IC50 stands for the point on the concentration scale where inhibition reaches its midpoint. For the compound `C#C[C@]1(O)CC[C@H]2[C@@H]3CCC4=CCCC[C@@H]4[C@H]3C(=C)C[C@@]21CC` [desogestrel], the EC50 was found to be 26.3 µM in the assay with LoVo colon cancer cells (FIG. 3, colon cancer, LoVo 96-well drug screening plate); 11.3 µM in assay [1] (FIG. 4, ER-negative Ah receptor-positive breast cancer, MDA-MB-468 plate); 136 µM in the assay with RKO colon cancer cells (FIG. 2, colon cancer, RKO 96-well drug screening plate). Moreover, the IC50 with LoVo colon cancer cells (FIG. 3, colon cancer, LoVo 96-well drug screening plate, read-out: IC50) is 26.2 µM; in the assay with LoVo colon cancer cells (LoVo cells, Table 1, read-out: IC50 value), 32.1 µM; in assay [1] (FIG. 4, ER-negative Ah receptor-positive breast cancer, MDA-MB-468 plate, read-out: IC50), 12.5 µM; in assay [1] (MDA-MB-468 cells, Table 1, read-out: IC50 value), 12.5 µM; in assay [2] it was at least 100 µM; with RKO colon cancer cells (FIG. 2, colon cancer, RKO 96-well drug screening plate, read-out: IC50), 32.1 µM. Further, the IC50 with RKO colon cancer cells (Homo sapiens, RKO cells, Table 1, read-out: IC50 value) came out at 26.2 µM.
